“Also recorded” adds a separate entry of the source.

Data on three compounds can be found in patent US20060052415A1, “N-{2-chloro-4-[(6,7-dimethoxy-4-quinolyl)oxy]phenyl}-n'-(5-methyl-3-isoxazolyl)urea salt in crystalline form” (KIRIN BEER KABUSHIKI KAISHA, priority 2002, published 2006).

Series [1] can be described thus: Hygroscopicity of crystal (weight change on storage). The following applies: 40° C. and 75% RH, hydrochloride; for hygroscopicity (level, in words): 2 weeks, based on weight change. The class given is physicochemical. As for the experimental part:
Hygroscopicity of Crystal
Form I to III crystals of hydrochloride, form I crystal of nitrate, form I and II crystals of sulfate, form I crystal of methanesulfonate, form I and II crystals of p-toluenesulfonate, and form I and II crystals of maleate of N-{2-chloro-4-[(6,7-dimethoxy-4-quinolyl)oxy]phenyl}-N′-(5-methyl-3-isoxazolyl)urea were stored under conditions of 40° C. and 75% RH for 2 weeks. Before and after the storage, the weight of each crystal was measured to determine a difference in weight between before the storage and after the storage.
For each crystal, the hygroscopicity was evaluated based on the weight change.

Series [2] in a line: Stability of crystal against physical stress (grinding in a mortar). The format is physicochemical. The following applies: ground in an agate or porcelain mortar, hydrochloride. As for the experimental part: (§1) X-ray diffraction patterns of crystals were taken using Cu-Kα radiation (40 kV, 40 mA, λ=1.541 angstroms) with a powder X-ray diffraction apparatus (X-ray diffraction RINT DMAX-2000, manufactured by Rigaku Industrial Corporation) (scanning speed: 5 degrees/min, scanning range: 5.000 to 40.000 degrees, filter: Kβ filter). Based on powder X-ray diffraction patterns thus obtained, peak positions and relative intensity (%) were determined for peaks with a relative intensity of not less than 20%.
Stability of Crystal Against Physical Stress
Each of form I to III crystals of hydrochloride, form I crystal of nitrate, form I and II crystals of sulfate, form I crystal of methanesulfonate, form I and II crystals of p-toluenesulfonate, and form I and II crystals of maleate of N-{2-chloro-4-[(6,7-dimethoxy-4-quinolyl)oxy]phenyl}-N′-(5-methyl-3-isoxazolyl)urea was ground in a mortar. In grinding each crystal in the mortar, about 1 mg of each crystal sample was placed and ground in an agate mortar or a porcelain mortar. For each sample before and after grinding, a powder X-ray diffraction chart was measured by method 1 to evaluate the stability of the crystal against physical stress.

Series [3] in a line: Stability of crystal under high humidity (40° C., 75% RH) conditions. The format is physicochemical. As to conditions: stored at 40° C. and 75% RH for 2 weeks, hydrochloride. As to the method:
as §1
Stability of Crystal Under High Humidity (40° C., 75% RH) Conditions
Form I to III crystals of hydrochloride, form I crystal of nitrate, form I and II crystals of sulfate, form I crystal of methanesulfonate, form I and II crystals of p-toluenesulfonate, and form I and II crystals of maleate of N-{2-chloro-4-[(6,7-dimethoxy-4-quinolyl)oxy]phenyl}-N′-(5-methyl-3-isoxazolyl)urea were stored under conditions of 40° C. and 75% RH for 2 weeks. […]

Series [4] is described as follows: Suspending crystal in aqueous methylcellulose solution (administration solution for rodents). The class given is physicochemical. An excerpt:
In the most preferred embodiment of the present invention, the crystal of a salt according to the present invention is form I crystal of N-{2-chloro-4-[(6,7-dimethoxy-4-quinolyl)oxy]phenyl}-N′-(5-methyl-3-isoxazolyl)urea hydrochloride. This form I crystal of hydrochloride has all physicochemical properties that are desired as pharmaceutical preparations for oral administration. The powder X-ray diffraction pattern of form I crystal of hydrochloride is not similar to that of other crystalline forms of hydrochloride (for example, form II crystal and form III crystal). Therefore, the mixing ratio of crystalline forms can be easily determined. […] Therefore, problems with administration are less likely to occur. Also in this respect, form I crystal of hydrochloride is advantageous.

A short description of series [5]: Stability of crystal under heating (73° C.) conditions. The format is physicochemical. As to conditions: stored at 73° C. for 2 weeks, hydrochloride. As for the experimental part: as §1
Stability of Crystal Under Heating (73° C.) Conditions
Form I to III crystals of hydrochloride, form I crystal of nitrate, form I and II crystals of sulfate, form I crystal of methanesulfonate, form I and II crystals of p-toluenesulfonate, and form I and II crystals of maleate of N-{2-chloro-4-[(6,7-dimethoxy-4-quinolyl)oxy]phenyl}-N′-(5-methyl-3-isoxazolyl)urea were stored at 73° C. for 2 weeks. […]

Another series relates to tumor. As to conditions: in vivo; cited from earlier work.
Setting [6] is: listed as form I crystal of hydrochloride.
[7] abbreviates: listed as form III crystal of hydrochloride.

As to `COc1cc2nccc(Oc3ccc(NC(=O)Nc4cc(C)on4)c(Cl)c3)c2cc1OC.Cl` [Form I crystal of hydrochloride, N-{2-chloro-4-[(6,7-dimethoxy-4-quinolyl)oxy]phenyl}-N′-(5-methyl-3-isoxazolyl)urea hydrochloride], in series [1], the “hygroscopicity (level, in words)” value is listed as “low level of hygroscopicity; also recorded: on a low level”; the “weight change (hygroscopicity) After 1 week” value is reported as 0.01%; the “weight change (hygroscopicity) After 2 weeks” value is given as 0.00%; the “weight change (hygroscopicity) After 2 days” value worked out at 0.00%. Also, the “stability of crystal against physical stress (powder X-ray diffraction before and after grinding)” value in series [2] (setting [6]) is reported as “excellent stability”. Besides, in series [3] (setting [6]), the “stability of crystal under high humidity conditions (change of powder X-ray diffraction chart)” value is recorded as “excellent stability”. Also, the “formation of gel on suspending” value in series [4] is recorded as “does not undergo a deterioration that results in the formation of gel”. Also, the “stability of crystal under high temperature conditions (change of powder X-ray diffraction chart)” value in series [5] (setting [6]) is recorded as “excellent stability”.
For `COc1cc2nccc(Oc3ccc(NC(=O)Nc4cc(C)on4)c(Cl)c3)c2cc1OC.Cl` [Form III crystal of hydrochloride, N-{2-chloro-4-[(6,7-dimethoxy-4-quinolyl)oxy]phenyl}-N′-(5-methyl-3-isoxazolyl)urea hydrochloride], in series [1], the “hygroscopicity (level, in words)” value is reported as “highly hygroscopic”; the “weight change (hygroscopicity) After 1 week” value is on record as 1.49%; the “weight change (hygroscopicity) After 2 weeks” value is given as 1.93%; the “weight change (hygroscopicity) After 2 days” value was 1.06%. Also, the “stability of crystal against physical stress (powder X-ray diffraction before and after grinding)” value in series [2] (setting [7]) is on record as “lowering in peak intensity”. Besides, the “stability of crystal under high humidity conditions (change of powder X-ray diffraction chart)” value in series [3] (setting [7]) is “converted to form I crystal”. Also, the “stability of crystal under high temperature conditions (change of powder X-ray diffraction chart)” value in series [5] (setting [7]) is given as “converted to form II crystal”.
On to `COc1cc2nccc(Oc3ccc(NC(=O)Nc4cc(C)on4)c(Cl)c3)c2cc1OC` [N-{2-chloro-4-[(6,7-dimethoxy-4-quinolyl)oxy]phenyl}-N′-(5-methyl-3-isoxazolyl)urea], for which the “tumor enhancement inhibitory activity” value in the series on tumor is listed as “has tumor enhancement inhibitory activity in vivo”.
